# Reference: patent US7378427B2, “Processes for preparing 6-alkyl-5-arylsulfonyl-dihydrophenanthridines” (Wyeth, priority 2004, dated 2008)
# pIC50: −log10 of the molar value.
# Experiments:
# creatine kinase (CK) = assay: HAECT-1 creatine kinase (CK) expression assay in Ad5-wt-ER infected cells; format: cell-based, human; conditions: relative to the maximal stimulation observed with E2; Ad5-wt-ER infected HAECT-1 cells
# Description: T-175 flasks of 100% confluent HAECT-1 cells (immortalized human aortic endothelial cells) were washed with 8 mL of HBSS (HEPES buffered saline solution) and infected for four hours with 6 mL of a 1:10 dilution of Ad5-wt-hERα virus (an adenovirus transfection vector that mediates CMV promoter driven expression of human ERα) in phenol red free Endothelial Cell Basal medium (Clonetics, San Diego Calif., Catalog #CC-3129) containing 0.25% bovine serum albumin (EBM-BSA). After four hours, the cells were washed with EBM-BSA and incubated overnight in the same medium. Following overnight incubation, the cells were washed with EBM-BSA and infected for 2 hours with 6 mL of a 1:10 dilution of Ad5-3×(NFκB). […] The cells were then washed, trypsinized, counted and resuspended in 95% FBS/5% dimethylsulfoxide at a concentration of 4×10^6 cells/mL, frozen as 1 or 5 mL aliquots in cryo-vials and stored at −150° C. […]
# ERα infected HAECT-1 cells or control cells were thawed, diluted 42× in warm EBM-BSA, plated into 96-well plates at 0.1 mL/well and incubated for 4 h at 34° C. […] Luciferase was determined on a Wallac Victor^2 Luminometer (Gaithersburg, Md.) using 10 μL of lysate and mixing with 100 μL of Promega Luciferase Assay reagent. Creatine kinase was determined from the rate of increase in A340 following addition of 100 μL of CK assay reagent (Sigma, cat. No 47-10) to the remainder of the cell lysate. […]
# IL-6 = assay: HAECT-1 IL-6 expression assay (ELISA) in Ad5-wt-ER infected cells (IL-1β induced); format: cell-based, human; conditions: Ad5-wt-ER infected HAECT-1 cells; for pIC50: IL-1β, IL-6 ELISA; for IL-6 Efficacy: relative to the maximal inhibition observed with E2
# Description: T-175 flasks of 100% confluent HAECT-1 cells (immortalized human aortic endothelial cells) were washed with 8 mL of HBSS (HEPES buffered saline solution) and infected for four hours with 6 mL of a 1:10 dilution of Ad5-wt-hERα virus (an adenovirus transfection vector that mediates CMV promoter driven expression of human ERα) in phenol red free Endothelial Cell Basal medium (Clonetics, San Diego Calif., Catalog #CC-3129) containing 0.25% bovine serum albumin (EBM-BSA). After four hours, the cells were washed with EBM-BSA and incubated overnight in the same medium. Following overnight incubation, the cells were washed with EBM-BSA and infected for 2 hours with 6 mL of a 1:10 dilution of Ad5-3×(NFκB). Luc virus (Adenovirus luciferase expression vector driven by 3 repeats of the MHC NFκb site 5′ to the thymidine kinase promoter) in EBM-BSA. After two hours, the cells were washed and incubated at 34° C. for 1 hour. The cells were then washed, trypsinized, counted and resuspended in 95% FBS/5% dimethylsulfoxide at a concentration of 4×10^6 cells/mL, frozen as 1 or 5 mL aliquots in cryo-vials and stored at −150° C. Control (no ER infection) cells were processed as above without Ad5-wt-hERα virus infection.
# ERα infected HAECT-1 cells or control cells were thawed, diluted 42× in warm EBM-BSA, plated into 96-well plates at 0.1 mL/well and incubated for 4 h at 34° C. Test compounds were added to the cells as 2× stocks in EBM-BSA containing 2 ng/mL IL-1β (R&D Systems) and plates were returned to the incubator (34° C.). After 15-20 h, 100 μL aliquots of media were removed from the cells and assayed for IL-6 content using a BioSource human IL-6 ELISA Kit. Cells were subsequently washed with 300 μL of Dulbecco's phosphate buffered saline and lysed in 50 μL of Cell Culture Lysis Reagent (Promega). Luciferase was determined on a Wallac Victor^2 Luminometer (Gaithersburg, Md.) using 10 μL of lysate and mixing with 100 μL of Promega Luciferase Assay reagent. Creatine kinase was determined from the rate of increase in A340 following addition of 100 μL of CK assay reagent (Sigma, cat. No 47-10) to the remainder of the cell lysate.
# (§1) For IC50 and EC50 calculations, mean IL-6, luciferase or CK values versus log10 of the compound concentration were fitted to a four parameter logistic equation. The IC50/EC50 value, ‘Hill slope’, upper and lower limits of the curve were iteratively estimated.
# NF-κB = assay: HAECT-1 NF-κB luciferase reporter assay in Ad5-wt-ER infected cells (IL-1β induced); format: cell-based, human; conditions: Ad5-wt-ER infected HAECT-1 cells
# Description: Control (no ER infection) cells were processed as above without Ad5-wt-hERα virus infection.
# Cells were subsequently washed with 300 μL of Dulbecco's phosphate buffered saline and lysed in 50 μL of Cell Culture Lysis Reagent (Promega). Luciferase was determined on a Wallac Victor^2 Luminometer (Gaithersburg, Md.) using 10 μL of lysate and mixing with 100 μL of Promega Luciferase Assay reagent. Creatine kinase was determined from the rate of increase in A340 following addition of 100 μL of CK assay reagent (Sigma, cat. No 47-10) to the remainder of the cell lysate.
# as §1
# C57BL/6 mice = assay: Uterine wet weight increase in ovariectomized C57BL/6 mice; format: in vivo; conditions: EE 0.01 mg/kg/day, test compound 10 mg/kg/day, gavage once daily for 5 weeks, compared to vehicle control
# Description: Ovariectomized C57BL/6 mice (16-20 g) (Taconic) were separated into groups of 8. After 5-7 days of recuperation, the mice were fed a chow diet or an atherogenic diet (15.75% fat, 1.25% cholesterol and 0.5% sodium cholate) (Purina diet #21539). EE or test compound was administered once daily by gavage in a methylcellulose/tween vehicle (0.1 ml per mouse) for 5 weeks. At the end of the experimental period, the liver was collected and uterine wet weight was recorded.
melting point,pIC50 (IL-6),"pIC50 (NF-κB; Homo sapiens, HAECT1, IL-1β, luciferase reporter)","pIC50 (IL-6; Homo sapiens, HAECT1)","Uterine Wet Weight Increase, Efficacy (%) (C57BL/6 mice)","Uterine Wet Weight Increase, Fold Increase (C57BL/6 mice)",Compound,CK Efficacy (creatine kinase (CK)),IL-6 Efficacy (IL-6),NF-κB Efficacy (NF-κB; relative to the maximal inhibition observed with E2)
165.5 to 167.3 °C,,,,,,"C[C@H]1c2cc(F)ccc2-c2ccccc2N1S(=O)(=O)c1ccc(OS(N)(=O)=O)cc1 [Example 22, 4-{[(6S)-8-Fluoro-6-methylphenanthridin-5(6H)-yl]sulfonyl}phenyl sulfamate]",,,
,8.77,,,,,"C[C@]12CC[C@@H]3c4ccc(O)cc4CC[C@H]3[C@@H]1CC[C@@H]2O [Example E2, 17-β-estradiol, reference compound]",100%,100%,
193 °C,,7.23,6.52,0%,0,"C[C@H]1c2cc(F)ccc2-c2ccccc2N1S(=O)(=O)c1ccc(O)cc1 [Example 8, 4-[(S)-8-Fluoro-6-methyl-6H-phenanthridine-5-sulfonyl]-phenol]",,118%,99%
,,,,100%,5.0,"C#C[C@]1(O)CC[C@H]2[C@@H]3CCc4cc(O)ccc4[C@H]3CC[C@@]21C [EE, reference compound]",,,
